According to patent US20120263791A1, “FOMULATION COMPRISING 1 H-QUINAZOLINE-2, 4-DIONE AMPA RECEPTOR ANTAGONISTS, IN THE FORM OF IMMEDIATE RELEASE TABLETS AND PREPARATION THEREOF” (NOVARTIS AG, priority 2009, published 2012):

Test: PK parameters after a single dose of three 50 mg tablets to a sample population (12)
Type: in vivo
Details: human, po, 150 mg, plasma, three 50 mg tablets of Example 4 in a single dose
Procedure: A 50 mg tablet as specified in Example 4 was prepared using the procedure described in Example 4. Three tablets were administered in a single dose to a sample population (12) and the PK parameters measured. These parameters are provided below.
Primary PK variables were […] and analyzed using a mixed effects linear model. Sequence, Period and Treatment factors were included in the model as fixed effects and subject as a random effect. 90% confidence intervals for PK variables (pharmacokinetic analysis population).
Drug Substance: Compound (iii); Matrix: Plasma; Analyte: Compound (iii).

CC(C)c1cc2[nH]c(=O)n(NS(C)(=O)=O)c(=O)c2cc1-c1ccnn1C [Compound (iii)]
AUC(0-inf) (read-out: AUCinf, adjusted geometric mean): 16800 ng·h/mL | AUC(0-t) (read-out: AUClast, adjusted geometric mean): 16800 ng·h/mL | Cmax (read-out: Cmax, adjusted geometric mean): 2910 ng/mL
